Laboratory results from patent US4007276A, “Triazolo isoindole derivatives” (Gruppo Lepetit, S.p.A., priority 1973, dated 1977).
Values after ≈ are worked out from the molar mass of the structure shown.

Columns and labels:
[1] = test system: carrageenin induced edema; assay: carrageenin induced edema of the rat hind paw (anti-inflammatory); assay type: in vivo; details: rats
Description: The anti-inflammatory activity of some representative compounds of formula I as hereinbefore described was evidenced by means of the carrageenin tests in rats. This test is carried out in the hind paw of the rat which paw has been inflammed by injection of carrageenin according to the technique described by C.A. Winter and coworker, Proc. Soc. Exptl. Biol. Med. III, 554 (1962). In following Table I are reported the percent inhibition of the carrageenin induced edema at the dose level indicated for each compound.

[2] = test system: female Syrian golden hamsters; assay: anti-fertility activity in pregnant hamsters; assay type: in vivo, hamster (Syrian golden); details: Mesocricetus auratus, sc, 5 mg/kg s.c., day 4 through day 8, autopsy day 14 of pregnancy, read-out: treated animals in which the number of live fetuses was either eliminated or severely reduced
Description: The anti-fertility activity of these compounds in rats was also confirmed in other species including mice, hamsters, rabbits, dogs, monkeys and baboons. With hamsters, the same criteria and conditions are followed as for testing in rats, with the exception that the animals (female Syrian golden hamsters weighing 100 to 130 g) are treated on day 4 through day 8 with 5 mg/kg s.c. of the test compound and are autopsied on day 14 of pregnancy.

[3] = toxicity, LD50 i.p. in mice; details: mouse, in vivo, ip
conditioned rats = assay: secondary conditioned avoidance response test (anti-anxiety); assay type: in vivo, rat
Description: The CNS depressant properties of compounds hereinbefore described were investigated according to the Irwin method and in particular the anti-anxiety effect was evaluated on the basis of the secondary conditioned avoidance response test. A specific anti-anxiety effect was evidenced by administering to conditioned rats doses of 15-60 mg/kg i.p. of representative said compounds of the invention.
Following Table II indicates the ratio of the rats which are deconditioned after administration of predetermined amounts of said representative compounds: […]

[4] = test system: female Sprague-Dawley rats; assay: anti-fertility activity in pregnant rats; assay type: in vivo, rat (Sprague-Dawley)
Description: Representative experiments for assessing anti-fertility activity are carried out with female Sprague-Dawley rats weighing 200-230 g. They were mated with proven fertile males. The presence of sperm in the vagina of these animals is evidence of mating and is also considered as being day one of pregnancy. Pregnancy is confirmed at the time of autopsy by the presence of fetuses or implantation sites in the uterus. Even when animals abort the fetuses, implantation scars remain as evidence that the animal had been pregnant.
[…] These animals were autopsied on day 16 of pregnancy and the uteri were examined for evidence of pregnancy and termination of pregnancy such as implantation sites, live or resorbing fetuses and hemorrage as well as abnormalities of the uterus, placenta or fetuses. A compound is considered to be active if there is a reduction of live fetuses in at least 60% of the treated animals and the presence of implantation sites proves the animals to have been pregnant.

baboons = assay: anti-fertility test in baboons; assay type: in vivo, baboon
[5] = test system: pain threshold of the rats; assay: analgesic activity, Randall and Selitto procedure, pain threshold; assay type: in vivo, rat; details: 50 mg/kg i.p.
Description: The analgesic activity of representative compounds as hereinbefore described was assessed in rats by following essentially the procedure described by L. O. Randall and J. J. Selitto, Arch. Int. Pharmacodyn., 111, 409 (1957).

[6] = test system: Mycobacterium tubercolosis H37 Rv; assay: minimal inhibitory concentration, bacterial growth; assay type: cell-based; details: H37RV, read-out: M.I.C. (minimal inhibitory concentration)
Description: In evaluating the antimicrobial utility of representative compounds as hereinbefore described, the minimal concentration of substance inhibiting bacterial growth (M.I.C.=minimal inhibitory concentration) was determined.

CC(=O)N(C(C)=O)c1nc2n(n1)Cc1ccccc1-2 [d, 2-diacetylamino-5H-s-triazolo[5,1-a]isoindole]
Per Cent Inhibition of the Edema ([1]; 50 mg/Kg p.o.): 34 Per Cent
Per Cent Inhibition of the Edema ([1]; 100 mg/Kg p.o.): 53 Per Cent

Sc1nc2n(n1)Cc1ccccc1-2 [g, 2-sulfhydryl-5H-s-triazolo[5,1-a]isoindole]
Per Cent Inhibition of the Edema ([1]; 50 mg/Kg p.o.): 39 Per Cent
Per Cent Inhibition of the Edema ([1]; 100 mg/Kg p.o.): 49 Per Cent

FC(F)(F)c1cccc(-c2nc3n(n2)Cc2ccccc2-3)c1 [2-(m-Trifluoromethylphenyl)-5H-s-triazolo[5,1-a]isoindole]
responders at 5 mg/kg [2]: ≥ 60%

COc1ccc2c(c1)-c1nc(-c3ccccc3)nn1C2 [8-Methoxy-2-phenyl-5H-s-triazolo[5,1-a]isoindole]
responders at 5 mg/kg [2]: ≥ 60%

COc1cccc(-c2nc3n(n2)Cc2cc(OC)ccc2-3)c1 [7-Methoxy-2-(m-methoxyphenyl)-5H-s-triazolo[5,1-a]isoindole]
responders at 5 mg/kg [2]: ≥ 60%

c1ccc(COc2cccc(-c3nc4n(n3)Cc3ccccc3-4)c2)cc1 [2-(m-Benzyloxyphenyl)-5H-s-triazolo[5,1-a]isoindole]
responders at 5 mg/kg [2]: ≥ 60%

COc1cccc(-c2nc3n(n2)Cc2ccc(Cl)cc2-3)c1 [8-Chloro-2-(m-methoxyphenyl)-5H-s-triazolo[5,1-a]isoindole]
responders at 5 mg/kg [2]: ≥ 60%

Nc1nc2n(n1)Cc1ccccc1-2 [2-Amino-5H-s-triazolo[5,1-a]isoindole]
LD50 [3]: 600 mg/kg
Deconditioned / treated (conditioned rats; 30 mg/kg i.p.): 8/10

COc1ccc(-c2nc3n(n2)Cc2ccccc2-3)cc1 [2-(p-Methoxyphenyl)-5H-s-triazolo[5,1-a]isoindole]
responders at 5 mg/kg [2]: ≥ 60%

COc1cccc(-c2nc3n(n2)Cc2cc(Cl)ccc2-3)c1 [7-Chloro-2-(m-methoxyphenyl)-5H-s-triazolo[5,1-a]isoindole]
responders at 5 mg/kg [2]: ≥ 60%

CCCOc1cccc(-c2nc3n(n2)Cc2ccccc2-3)c1 [2-(m-Propoxyphenyl)-5H-s-triazolo[5,1-a]isoindole]
% Animals Aborting ([4]; 1 mg/kg/day s.c.): 20%
% Animals Aborting ([4]; 1.25 mg/kg/day s.c.): 60%
% Animals Aborting ([4]; 2.5 mg/kg/day s.c.): 77.8%
% Animals Aborting ([4]; 5 mg/kg/day s.c.): 100%
responders at 5 mg/kg [2]: ≥ 60%

Clc1cccc(-c2nc3n(n2)Cc2ccccc2-3)c1 [2-(m-Chlorophenyl)-5H-s-triazolo[5,1-a]isoindole]
responders at 5 mg/kg [2]: ≥ 60%

CC(=O)Nc1nc2n(n1)Cc1ccccc1-2 [c, 2-acetamido-5H-s-triazolo[5,1-a]isoindole]
Per Cent Inhibition of the Edema ([1]; 50 mg/Kg p.o.): 35 Per Cent
Per Cent Inhibition of the Edema ([1]; 100 mg/Kg p.o.): 54 Per Cent

O=C(Nc1nc2n(n1)Cc1ccccc1-2)c1ccccc1 [f, 2-benzoylamino-5H-s-triazolo[5,1-a]isoindole]
Per Cent Inhibition of the Edema ([1]; 100 mg/Kg p.o.): 28 Per Cent

COc1cccc(-c2nc3n(n2)Cc2cc(OC)c(OC)cc2-3)c1 [7,8-Dimethoxy-2-(m-methoxyphenyl)-5H-s-triazolo[5,1-a]isoindole]
responders at 5 mg/kg [2]: ≥ 60%

COc1cccc(-c2nc3n(n2)Cc2ccccc2-3)c1 [2-(m-Methoxyphenyl)-5H-s-triazolo[5,1-a]isoindole]
% Animals Aborting ([4]; 0.155 mg/kg/day s.c.): 0%
% Animals Aborting ([4]; 0.31 mg/kg/day s.c.): 0%
% Animals Aborting ([4]; 0.62 mg/kg/day s.c.): 38.5%
% Animals Aborting ([4]; 1.25 mg/kg/day s.c.): 70.8%
% Animals Aborting ([4]; 2.5 mg/kg/day s.c.): 100%
% Animals Aborting ([4]; 5 mg/kg/day s.c.): 100%
responders at 5 mg/kg [2]: ≥ 60%
induced abortion (baboons): induced abortion in every animal studied

c1ccc2c(c1)Cn1nc(-c3ccc4c(c3)OCO4)nc1-2 [2-(3,4-Methylenedioxyphenyl)-5H-s-triazolo[5,1-a]isoindole]
% Animals Aborting ([4]; 1 mg/kg/day s.c.): 0%
% Animals Aborting ([4]; 1.25 mg/kg/day s.c.): 25%
% Animals Aborting ([4]; 2.5 mg/kg/day s.c.): 66.7%
% Animals Aborting ([4]; 5 mg/kg/day s.c.): 100%
responders at 5 mg/kg [2]: ≥ 60%

NC(=O)Nc1nc2n(n1)Cc1ccccc1-2 [e, 2-ureido-5H-s-triazolo[5,1-a]isoindole]
Per Cent Inhibition of the Edema ([1]; 100 mg/Kg p.o.): 29 Per Cent

Cc1cccc(-c2nc3n(n2)Cc2ccccc2-3)c1 [2-(m-Tolyl)-5H-s-triazolo[5,1-a]isoindole]
responders at 5 mg/kg [2]: ≥ 60%

CN(C)c1cccc(-c2nc3n(n2)Cc2ccccc2-3)c1 [2-(m-Dimethylaminophenyl)-5H-s-triazolo[5,1-a]isoindole]
responders at 5 mg/kg [2]: ≥ 60%

Clc1ccc2c(c1)-c1nc(-c3ccccc3)nn1C2 [8-Chloro-2-phenyl-5H-s-triazolo[5,1-a]isoindole]
responders at 5 mg/kg [2]: ≥ 60%

c1cncc(-c2nc3n(n2)Cc2ccccc2-3)c1 [2-(3-pyridyl)-5H-s-triazolo[5,1-aisoindole]
increase of the pain threshold of the rats [5]: 70%
toxic effect [5]: without provoking any toxic effect

CCCCc1nc2n(n1)Cc1ccccc1-2 [a, 2-n-butyl-5H-s-triazolo[5,1-a]isoindole]
Per Cent Inhibition of the Edema ([1]; 100 mg/Kg p.o.): 28 Per Cent

Fc1cccc(-c2nc3n(n2)Cc2ccccc2-3)c1 [2-(m-Fluorophenyl)-5H-s-triazolo[5,1-a]isoindole]
responders at 5 mg/kg [2]: ≥ 60%

CCOc1cccc(-c2nc3n(n2)Cc2ccccc2-3)c1 [2-(m-Ethoxyphenyl)-5H-s-triazolo[5,1-a]isoindole]
% Animals Aborting ([4]; 1 mg/kg/day s.c.): 33.3%
% Animals Aborting ([4]; 1.25 mg/kg/day s.c.): 62.5%
% Animals Aborting ([4]; 2.5 mg/kg/day s.c.): 85.7%
% Animals Aborting ([4]; 5 mg/kg/day s.c.): 100%
responders at 5 mg/kg [2]: ≥ 60%

Cc1nc2n(n1)Cc1ccccc1-2 [2-Methyl-5H-s-triazolo[5,1-a]isoindole]
LD50 [3]: > 400 mg/kg
Deconditioned / treated (conditioned rats; 15 mg/kg i.p.): 6/10
Deconditioned / treated (conditioned rats; 30 mg/kg i.p.): 7/10

Clc1ccc(-c2nc3n(n2)Cc2ccccc2-3)cc1 [2-(p-Chlorophenyl)-5H-s-triazolo[5,1-a]isoindole]
responders at 5 mg/kg [2]: ≥ 60%

Cc1ccc(-c2nc3n(n2)Cc2ccccc2-3)cc1 [2-(p-Tolyl)-5H-s-triazolo[5,1-a]isoindole]
responders at 5 mg/kg [2]: ≥ 60%

c1ccc(-c2nc3n(n2)Cc2ccccc2-3)cc1 [2-Phenyl-5H-s-triazolo[5,1-a]isoindole]
% Animals Aborting ([4]; 1.25 mg/kg/day s.c.): 20%
% Animals Aborting ([4]; 2.5 mg/kg/day s.c.): 80%
responders at 5 mg/kg [2]: ≥ 60%

Fc1ccc(-c2nc3n(n2)Cc2ccccc2-3)cc1 [2-(p-Fluorophenyl)-5H-s-triazolo[5,1-a]isoindole]
responders at 5 mg/kg [2]: ≥ 60%

Clc1ccc2c(c1)Cn1nc(-c3ccccc3)nc1-2 [7-Chloro-2-phenyl-5H-s-triazolo[5,1-a]isoindole]
responders at 5 mg/kg [2]: ≥ 60%

Oc1cccc(-c2nc3n(n2)Cc2ccccc2-3)c1 [2-(m-Hydroxyphenyl)-5H-s-triazolo[5,1-a]isoindole]
responders at 5 mg/kg [2]: ≥ 60%

CCOC(=O)NC(=S)Nc1nc2n(n1)Cc1ccccc1-2 [2-carbethoxythioureido-5H-s-triazolo[5,1-a]isoindole]
MIC [6]: 5 µg/mL (≈ 16.5 µM)

COc1cccc(-c2nc3n(n2)Cc2ccc(OC)cc2-3)c1 [8-Methoxy-2-(m-methoxyphenyl)-5H-s-triazolo[5,1-a]isoindole]
% Animals Aborting ([4]; 2.5 mg/kg/day s.c.): 57.1%
% Animals Aborting ([4]; 5 mg/kg/day s.c.): 100%
responders at 5 mg/kg [2]: ≥ 60%
